Key:
adrenocortical carcinoma = details: cited from earlier work
H295R cells [1] = assay: Caspase 3/7 Glo assay for apoptosis; format: cell-based; details: for induction of apoptosis (caspase 3/7 activity), single compound: H295R (wild type p53), 8, 16, 24 and 48 hours
Description: (§1) ACC cell lines were plated and 24 hours later, 0.5 μM, 1 μM, 2.5 μM, and 5 μM of doxorubicin was added to the cultures. […] Data was normalized to cells alone, then to vehicle alone and expressed as a percentage of vehicle alone. […] H295R cells were plated at a density of 1750 cells/well in 40 μl of medium and SW-13 was plated at 1250 cells/wells in 40 μl DMEM with 2% FBS. […] Percent caspase 3/7 activity was normalized to cells and to DMSO control. […] […] Doxorubicin (Tocris, Minneapolis, Minn.) was used as a positive control for induction of apoptosis.

SW-13 cells [2] = assay: Caspase 3/7 Glo assay for apoptosis; format: cell-based; details: for induction of apoptosis (caspase 3/7 activity), single compound: SW-13 (mutant p53), 8, 16, 24 and 48 hours
Description: as §1

BD140 lines = assay: Caspase 3/7 Glo assay for apoptosis; format: cell-based
Description: ACC cell lines SW-13 and H295R were obtained from ATCC and authenticated by STR analysis on Aug. 24, 2012. BD140 lines (A-C) represent distinct subclones established from the tumor of ACC140. BD167 was also established. They are positive for DHEAS expression, confirming adrenocortical origin. SW-13 and the […] were grown in DMEM supplemented with 10% FBS, 1% L-glutamine, 1% […] (ITS), and penicillin-streptomycin. BD140-A, BD140-B and BD167 were grown in RPMI supplemented with 10% FBS, 1% L-glutamine, 1% ITS, and penicillin-streptomycin. H295R was grown in DMEM:F12 supplemented with 2.5% NuSerum, 1% L-glutamine, 1% ITS, and penicillin-streptomycin. All cells lines were grown at 37° C. in a 5% CO2 atmosphere.
ACC cell lines were plated and 24 hours later, 0.5 μM, 1 μM, 2.5 μM, and 5 μM of doxorubicin was added to the cultures. The activity of caspases 3 and 7 was assessed using Caspase 3/7 Glo (Promega, Madison, Wis.) at 8, 24, and 48 hours after drug addition according to manufacturer's instructions. Data was normalized to cells alone, then to vehicle alone and expressed as a percentage of vehicle alone.

H295R cells [3] = assay: In vitro drug dose-response, cell viability by CellTiter Glo; format: cell-based
Description: (§2) H295R cells were plated at a density of 1750 cells/well in 40 μl of medium and SW-13 cells were plated at 1250 cells/wells in 40 μl DMEM with 2% FBS in white 384-well plates and allowed to attach for 24 hours. […] Cell viability was normalized to cells alone and DMSO controls. […].
(§3) Dose response curves and IC50 values for cell survival in the presence of the drugs were calculated using Prism software (GraphPad) using the log(inhibitor) vs. response—4 parameter function which fits the following equation: Y=Bottom+(Top-Bottom)/[1+10̂(X−Log IC50)] where X is the logarithm of concentration and Y is the percent cell survival. Y starts at the top and goes to bottom with a sigmoid shape as X increases. All experiments were done at least three technical replicates and values are represented as averages with standard error.

SW-13 cells [4] = assay: as above; format: cell-based
Description: as §2, §3

TP53 (p53) transcript = assay: RT-qPCR of p53 mRNA levels; format: cell-based; details: either of the two cell lines (H295R, SW-13)
Description: (§4) 6×10^5 SW-13 and 7.5×10^5 H295R cells were plated in 10 cm^2 dishes in 10 ml of media. […] Total RNA was extracted 24 hours later using the mirVana miRNA Isolation Kit (Ambion, Inc, Grand Island, N.Y.) as per the manufacturer's protocol.
(§5) Total RNA was reverse transcribed utilizing both random hexamer and oligo-dT primers and the RT^2 First Strand cDNA Synthesis Kit (SABiosciences, Valencia, Calif.). The resulting cDNA was amplified on the iQ5 Real-Time PCR Detection System (Bio-Rad Laboratories, Inc, Hercules, Calif.) using primer sets for TP53 (p53), CDKN1A (p21) and ACTB (β-actin) and RT^2 SYBR Green Master Mix (all from SABiosciences, Valencia, Calif.) and run according to manufacturer's instructions. Melting curve analysis was performed to evaluate primer set specificity. Fold difference relative to […], which was used as the reference gene, was calculated using the Pfaffl method taking into account reaction efficiencies.

CDKN1A (p21) transcript = assay: RT-qPCR of p21 mRNA levels; format: cell-based
Description: as §4, §5

MDM2 protein = assay: Western blot of MDM2 protein after BI-2536; format: cell-based; details: H295R and SW-13; BI-2536 24 hours
Description: 6×10^5 SW-13 and 7.5×10^5 H295R cells were plated in 10 cm^2 dishes in 10 ml of media. […] Cells were lysed with RIPA buffer with protease and phosphatase inhibitors, and the resulting protein lysate quantitated by BCA (Pierce, Thermo Scientific, Pittsburgh, Pa.). Thirty micrograms of protein were loaded onto 4-12% Bis-Tris pre-cast gels (Invitrogen, Carlsbad, Calif.) and allowed to separate at 150V for 1 hour. The gels were then transferred onto PVDF membranes for 7 minutes using the iBLOT western transfer system (Invitrogen, Carlsbad, Calif.) at room temperature. […] The membranes were developed using the SuperSignal West Femto Chemiluminescent Substrate (Pierce, Thermo Scientific, Pittsburgh, Pa.) and were visualized and quantitated with the Bio Spectrum 500 Imaging System (UVP, Cambridge, UK).
The blots were processed as described above for the detection of β-Actin (AbCam, Cambridge, Mass.) in 5% blocking solution which was used as an internal loading control. […] The actin membranes were also detected using the SuperSignal West Femto Chemiluminescent Substrate (Pierce, Thermo Scientific, Pittsburgh, Pa.) and were visualized and quantitated with the Bio Spectrum 500 Imaging System (UVP, Cambridge, UK) and relative amounts of PLK-1, MDM2 and p53 protein are reported relative to β-Actin. […]

Clc1ccc(C(c2ccccc2Cl)C(Cl)Cl)cc1 (stereo not shown) [mitotane]
survival of patients whose tumors respond (adrenocortical carcinoma; improved from 14 months): 50 months | response rate (adrenocortical carcinoma; mitotane as a single agent): 23% | tolerability (adrenocortical carcinoma; most patients, severe toxic side effects): poorly tolerated

COc1cccc2c1C(=O)c1c(O)c3c(c(O)c1C2=O)C[C@@](O)(C(=O)CO)C[C@@H]3O[C@H]1C[C@H](N)[C@H](O)[C@H](C)O1 [doxorubicin]
caspase 3/7 activation (apoptosis) following doxorubicin exposure (H295R cells [1]; H295R, 0.5-5 μM, 8, 24, 48 hours): delayed | time to significant induction of caspase 3/7 activation following doxorubicin exposure (SW-13 cells [2]; SW-13, 0.5-5 μM): ≤ 8 h | induction of caspase 3/7 activity (BD140 lines; 0.5 μM and 1 μM): not seen until 48 hours | induction of caspase 3/7 activity (BD140 lines; 2.5 μM and 5 μM, by 24 hours): moderate induction

COc1ccc(C2=N[C@@H](c3ccc(Cl)cc3)[C@@H](c3ccc(Cl)cc3)N2C(=O)N2CCNC(=O)C2)c(OC(C)C)c1 [nutlin-3]
induction of apoptosis (caspase 3/7 activity), single compound (H295R cells [1]): restored the apoptotic response | induction of apoptosis (caspase 3/7 activity), single compound (SW-13 cells [2]): small increase in apoptosis | cell viability (in words) (H295R cells [3]): decreased | IC50 (H295R cells [3]; CellTiter Glo, combination: BI-2536 kept constant at IC25, nutlin-3 serially diluted): 12.8 µM | cell viability (in words) (SW-13 cells [4]): decreased | IC50 (SW-13 cells [4]; CellTiter Glo, 96 hours, combination: BI-2536 kept constant at IC25, nutlin-3 serially diluted): 19.8 µM

CC[C@@H]1C(=O)N(C)c2cnc(Nc3ccc(C(=O)NC4CCN(C)CC4)cc3OC)nc2N1C1CCCC1 [BI-2536]
levels of p53 transcript (TP53 (p53) transcript): did not significantly affect | transcription of CDKN1A (p21) (CDKN1A (p21) transcript; H295R, wild type p53): general trend of increased transcription | amount of CDKN1A message (CDKN1A (p21) transcript; SW-13, mutant p53): reduced | levels of the MDM2 protein (MDM2 protein): does not affect | induction of apoptosis (caspase 3/7 activity), single compound (H295R cells [1]): robust induction of apoptosis | time of maximum induction of apoptosis (SW-13 cells [2]; SW-13): 48 h | induction of apoptosis (caspase 3/7 activity), single compound (SW-13 cells [2]): robust induction of apoptosis | IC10 (cell viability) (H295R cells [3]): 0.00565 µM | IC10 (cell viability) (SW-13 cells [4]): 0.0222 µM

Reference: patent publication US20160038498A1, “METHODS FOR THE TREATMENT OF CANCER” (The Translational Genomics Research Institute, priority 2013, published 2016)
